Assays:
cocklebur = experiment: Test B pre/postemergence cocklebur; format: in vivo, Xanthium strumarium
Method in brief: (§1)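 Response is a visual 0-to-10 score relative to untreated plants, where 0 means no effect and 10 means complete control, taken twelve to sixteen days after application. Treatments went onto soil at planting and onto foliage of 1- to 4-leaf plants, using a surfactant-containing non-phytotoxic solvent.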

giant foxtail = experiment: Test B pre/postemergence giant foxtail; format: in vivo, Setaria faberii
Method in brief: as §1

morningglory = experiment: Test B pre/postemergence morningglory; format: in vivo, Ipomoea hederacea
Method in brief: as §1

bamyardgrass = experiment: Test B flood test barnyardgrass; format: in vivo, Echinochloa crus-galli
Method in brief: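 Each value is a visual injury score relative to controls, with 10 meaning complete control and 0 no effect. Evaluation took place twelve to sixteen days after the 2-leaf-stage plants were treated and kept in the greenhouse.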

[1] = Preemergence, Rate 62 g/ha, scale of 0 to 10 where 0 is no effect and 10 is complete control
[2] = Preemergence, Rate 500 g/ha, scale of 0 to 10 where 0 is no effect and 10 is complete control
[3] = Rate 62 g/ha, Postemergence, scale of 0 to 10 where 0 is no effect and 10 is complete control
[4] = Rate 125 g/ha, Postemergence, scale 0 to 10
[5] = Rate 125 g/ha, Preemergence, scale of 0 to 10 where 0 is no effect and 10 is complete control
[6] = Rate 500 g/ha, Postemergence, scale 0 to 10, 0 no effect, 10 complete control
[7] = Preemergence, Rate 250 g/ha, scale of 0 to 10 where 0 is no effect and 10 is complete control
[8] = Rate 62 g/ha, headed Pre-emergence (flood test species), scale 0 to 10 (0 no effect, 10 complete control)
[9] = Rate 125 g/ha, Pre-emergence, flood test species, scale 0 to 10 where 0 is no effect and 10 is complete control
[10] = Rate 250 g/ha, Pre-emergence, flood-test species, scale 0 to 10, 0 is no effect, 10 is complete control
[11] = Rate 500 g/ha, Pre-emergence, flood test species, scale 0 to 10 (0 no effect, 10 complete control)
[12] = Rate 62 g/ha, Postemergence, scale 0 to 10, 0 no effect, 10 complete control
[13] = Rate 125 g/ha, Postemergence, scale of 0 to 10 where 0 is no effect and 10 is complete control
[14] = Rate 250 g/ha, Postemergence, scale of 0 to 10 where 0 is no effect and 10 is complete control
[15] = Pre-emergence, Rate 1000 g/ha, scale 0 to 10 (0 no effect, 10 complete control)
[16] = Postemergence, Rate 125 g/ha, scale 0 to 10, 0 is no effect, 10 is complete control

SMILES	Cocklebur plant response rating (cocklebur; [1])	Plant response rating, Cocklebur (cocklebur; [2])	Cocklebur plant response rating (cocklebur; [6])	Giant foxtail plant response rating (giant foxtail; [1])	Giant foxtail plant response rating (giant foxtail; [7])	Morningglory plant response rating (morningglory; [1])	Morningglory plant response rating (morningglory; [7])	Barnyardgrass plant response rating (bamyardgrass; [8])	Barnyardgrass plant response rating (bamyardgrass; [9])	Barnyardgrass plant response rating (bamyardgrass; [10])	Barnyardgrass plant response rating (bamyardgrass; [11])	Cocklebur plant response rating (cocklebur; [7])	Cocklebur plant response rating (0 to 10 scale) (cocklebur; Preemergence, Rate 125 g/ha)	Cocklebur plant response rating (cocklebur; [12])	Giant foxtail plant response rating (0 to 10 scale) (giant foxtail; Preemergence, Rate 125 g/ha)	Giant foxtail plant response rating (giant foxtail; [2])	Giant foxtail plant response rating (giant foxtail; [12])	Morningglory plant response rating (0 to 10 scale) (morningglory; Preemergence, Rate 125 g/ha)	Morningglory plant response rating (morningglory; [2])	Morningglory plant response rating (morningglory; [12])	other results
COCCOCn1c(=O)on(C(=O)N(c2ccc(F)cc2)C(C)C)c1=O [Compound 220]	0	5	5	9	10	0	1	0	0	2	3	–	–	–	–	–	–	–	–	–	Cocklebur plant response rating (cocklebur; [3]): 0; Cocklebur plant response rating (cocklebur; [4]): 0; Cocklebur plant response rating (cocklebur; [5]): 0; Plant response rating (0 to 10; 0 is no effect, 10 is complete control), Cocklebur (cocklebur; Rate 250 g/ha, Postemergence): 3; Plant response rating, Giant foxtail (giant foxtail; [2]): 10; Giant foxtail plant response rating (giant foxtail; [3]): 5; Giant foxtail plant response rating (giant foxtail; [4]): 6; Giant foxtail plant response rating (giant foxtail; [5]): 9; Plant response rating (0 to 10; 0 is no effect, 10 is complete control), Giant foxtail (giant foxtail; Rate 250 g/ha, Postemergence): 8; Giant foxtail plant response rating (giant foxtail; [6]): 8; Plant response rating, Morningglory (morningglory; [2]): 6; Morningglory plant response rating (morningglory; [3]): 5; Morningglory plant response rating (morningglory; [4]): 5; Morningglory plant response rating (morningglory; [5]): 0; Plant response rating (0 to 10; 0 is no effect, 10 is complete control), Morningglory (morningglory; Rate 250 g/ha, Postemergence): 8; Morningglory plant response rating (morningglory; [6]): 8
Cc1cc(C)c(-n2c(=O)on(C(=O)N(c3ccc(F)cc3)C(C)C)c2=O)c(Br)c1 [Compound 224]	0	0	1	3	9	0	0	0	0	0	0	0	–	–	–	–	–	–	–	–	Cocklebur plant response rating (cocklebur; [3]): 0; Cocklebur plant response rating (cocklebur; [4]): 0; Cocklebur plant response rating (cocklebur; [5]): 0; Plant response rating (0 to 10; 0 is no effect, 10 is complete control), Cocklebur (cocklebur; Rate 250 g/ha, Postemergence): 0; Plant response rating, Giant foxtail (giant foxtail; [2]): 10; Giant foxtail plant response rating (giant foxtail; [3]): 0; Giant foxtail plant response rating (giant foxtail; [4]): 0; Giant foxtail plant response rating (giant foxtail; [5]): 7; Plant response rating (0 to 10; 0 is no effect, 10 is complete control), Giant foxtail (giant foxtail; Rate 250 g/ha, Postemergence): 4; Giant foxtail plant response rating (giant foxtail; [6]): 0; Plant response rating, Morningglory (morningglory; [2]): 0; Morningglory plant response rating (morningglory; [3]): 2; Morningglory plant response rating (morningglory; [4]): 2; Morningglory plant response rating (morningglory; [5]): 0; Plant response rating (0 to 10; 0 is no effect, 10 is complete control), Morningglory (morningglory; Rate 250 g/ha, Postemergence): 5; Morningglory plant response rating (morningglory; [6]): 6
CCC(C)N(C(=O)n1oc(=O)n(-c2ccccc2C)c1=O)c1ccc(F)cc1 (stereo not drawn) [Compound 239]	0	0	1	4	10	0	0	0	0	0	0	0	–	–	–	–	–	–	–	–	Cocklebur plant response rating (cocklebur; [3]): 0; Cocklebur plant response rating (cocklebur; [4]): 1; Cocklebur plant response rating (cocklebur; [5]): 0; Plant response rating (0 to 10; 0 is no effect, 10 is complete control), Cocklebur (cocklebur; Rate 250 g/ha, Postemergence): 1; Plant response rating, Giant foxtail (giant foxtail; [2]): 10; Giant foxtail plant response rating (giant foxtail; [3]): 0; Giant foxtail plant response rating (giant foxtail; [5]): 10; Plant response rating (0 to 10; 0 is no effect, 10 is complete control), Giant foxtail (giant foxtail; Rate 250 g/ha, Postemergence): 1; Giant foxtail plant response rating (giant foxtail; [6]): 6; Plant response rating, Morningglory (morningglory; [2]): 0; Morningglory plant response rating (morningglory; [3]): 1; Morningglory plant response rating (morningglory; [5]): 0; Plant response rating (0 to 10; 0 is no effect, 10 is complete control), Morningglory (morningglory; Rate 250 g/ha, Postemergence): 3; Morningglory plant response rating (morningglory; [6]): 9
Cc1ccccc1-n1c(=O)on(C(=O)N(c2ccncc2)C(C)C)c1=O [Compound 301]	0	–	0	0	0	0	0	0	0	0	0	0	0	0	0	0	0	0	0	0	Cocklebur plant response rating (cocklebur; [13]): 0; Plant response rating, Cocklebur (cocklebur; [14]): 0; Giant foxtail plant response rating (giant foxtail; [13]): 0; Plant response rating, Giant foxtail (giant foxtail; [14]): 0; Morningglory plant response rating (morningglory; [13]): 0; Plant response rating, Morningglory (morningglory; [14]): 0
Cc1ccccc1-n1c(=O)on(C(=O)N(c2ccc3ccccc3c2)C(C)C)c1=O [Compound 306]	0	–	0	2	8	0	0	–	0	0	0	0	0	0	2	9	0	0	0	2	Cocklebur plant response rating (cocklebur; [2]): 0; Cocklebur plant response rating (cocklebur; [13]): 0; Plant response rating, Cocklebur (cocklebur; [14]): 0; Giant foxtail plant response rating (giant foxtail; [13]): 0; Plant response rating, Giant foxtail (giant foxtail; [14]): 0; Morningglory plant response rating (morningglory; [13]): 2; Barnyardgrass plant response rating (bamyardgrass; [15]): 0
CC(C)N(C(=O)n1oc(=O)n(CC2CCCC2)c1=O)c1ccc(F)cc1 [Compound 322]	0	–	–	6	9	0	0	–	3	7	–	0	0	0	9	10	0	0	0	4	Cocklebur plant response rating (cocklebur; [2]): 4; Cocklebur plant response rating (cocklebur; [13]): 0; Plant response rating, Cocklebur (cocklebur; [14]): 0; Plant response rating, Cocklebur (cocklebur; [6]): 4; Giant foxtail plant response rating (giant foxtail; [13]): 0; Plant response rating, Giant foxtail (giant foxtail; [14]): 1; Plant response rating, Giant foxtail (giant foxtail; [6]): 4; Morningglory plant response rating (morningglory; [13]): 4; Plant response rating, Morningglory (morningglory; [14]): 7; Plant response rating, Morningglory (morningglory; [6]): 8; Barnyardgrass plant response rating (bamyardgrass; [15]): 9
CC(C)N(C(=O)n1oc(=O)n(-c2ccc3ccccc3c2)c1=O)c1ccccc1 [Compound 332]	0	–	–	0	4	0	0	–	0	0	0	0	0	0	1	7	0	0	0	0	Plant response rating, Cocklebur (cocklebur; [16]): 0; Cocklebur plant response rating (cocklebur; [2]): 0; Plant response rating, Cocklebur (cocklebur; [6]): 0; Plant response rating, Giant foxtail (giant foxtail; [16]): 0; Plant response rating, Giant foxtail (giant foxtail; [6]): 0; Plant response rating, Morningglory (morningglory; [16]): 0; Plant response rating, Morningglory (morningglory; [6]): 0; Barnyardgrass plant response rating (bamyardgrass; [15]): 0

From patent US6737383B1, “Herbicidal oxadiazolidines” (priority 1999, dated 2004)
